Values of other authors in patent US20180256623A1, “COMPOSITIONS AND METHOD FOR REGULATING ADIPOSE TISSUE LIPOLYSIS, INSULIN-RESISTANCE, AND HYPERGLYCEMIA” (University of Virginia Patent Foundation, priority 2015, published 2018).
Read-outs that look alike come from different tables or passages of the source.

What was measured:
hormone-sensitive lipase = target: T1, hormone-sensitive lipase (Homo sapiens, UniProt Q05469); conditions: cited from earlier work
T1 sequence (Q05469 1-1076): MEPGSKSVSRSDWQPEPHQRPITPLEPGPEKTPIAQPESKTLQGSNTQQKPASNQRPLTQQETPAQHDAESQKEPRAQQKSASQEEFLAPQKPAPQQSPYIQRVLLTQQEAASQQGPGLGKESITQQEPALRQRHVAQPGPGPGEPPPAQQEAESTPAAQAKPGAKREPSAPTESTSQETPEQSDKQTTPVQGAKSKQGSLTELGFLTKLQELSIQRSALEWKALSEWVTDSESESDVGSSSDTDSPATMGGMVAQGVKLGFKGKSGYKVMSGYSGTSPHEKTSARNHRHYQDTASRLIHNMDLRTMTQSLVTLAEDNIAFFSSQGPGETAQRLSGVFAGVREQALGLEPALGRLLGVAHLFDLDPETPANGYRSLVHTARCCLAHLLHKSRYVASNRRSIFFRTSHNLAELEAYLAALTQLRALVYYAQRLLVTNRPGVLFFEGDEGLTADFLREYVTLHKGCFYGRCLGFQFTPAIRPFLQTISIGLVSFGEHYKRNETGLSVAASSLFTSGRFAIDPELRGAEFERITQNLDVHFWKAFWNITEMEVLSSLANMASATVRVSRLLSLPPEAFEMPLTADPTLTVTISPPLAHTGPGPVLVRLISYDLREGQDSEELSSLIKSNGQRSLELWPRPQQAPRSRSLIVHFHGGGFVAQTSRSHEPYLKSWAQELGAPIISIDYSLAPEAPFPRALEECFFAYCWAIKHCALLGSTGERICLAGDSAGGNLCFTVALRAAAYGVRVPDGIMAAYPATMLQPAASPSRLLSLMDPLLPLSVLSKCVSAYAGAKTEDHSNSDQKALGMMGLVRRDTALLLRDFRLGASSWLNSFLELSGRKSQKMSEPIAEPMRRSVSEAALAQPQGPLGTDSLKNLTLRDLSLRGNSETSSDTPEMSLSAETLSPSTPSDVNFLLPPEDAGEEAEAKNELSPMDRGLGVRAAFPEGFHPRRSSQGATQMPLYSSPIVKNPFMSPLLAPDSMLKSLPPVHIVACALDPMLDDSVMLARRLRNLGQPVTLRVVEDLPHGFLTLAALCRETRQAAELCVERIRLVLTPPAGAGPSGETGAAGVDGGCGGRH

lipolysis by ATGL [1] = conditions: in vitro; cited from earlier work
lipolysis by ATGL [2] = conditions: in vivo; cited from earlier work

CN(C)C(=O)Nc1cccc(-c2ccc(N(C)C)cc2)c1 [Atglistatin, N′-[4′-(dimethylamino) [1,1′-biphenyl]-3-yl]-N,N-dimethyl-urea]
inhibition of hormone-sensitive lipase (hormone-sensitive lipase): does not inhibit
lipolysis by ATGL (fatty acid mobilization) (lipolysis by ATGL [1]): blocks lipolysis
lipolysis by ATGL (fatty acid mobilization) (lipolysis by ATGL [2]): blocks lipolysis
